{"source": "paper PMC10354095", "about": "“Insights into peculiar fungal LPMO family members holding a short C-terminal sequence reminiscent of phosphate binding motifs” (Scientific Reports, 2023)", "target": "T1, CciAA9-X282-CBM1 (Coprinopsis cinerea, UniProt A8NCG7)", "T1 construct": "gene AA9-X282; AA9-X282-linker-CBM1; C-terminal poly-His tag; Pichia pastoris X33", "T1 sequence (A8NCG7 19-342)": "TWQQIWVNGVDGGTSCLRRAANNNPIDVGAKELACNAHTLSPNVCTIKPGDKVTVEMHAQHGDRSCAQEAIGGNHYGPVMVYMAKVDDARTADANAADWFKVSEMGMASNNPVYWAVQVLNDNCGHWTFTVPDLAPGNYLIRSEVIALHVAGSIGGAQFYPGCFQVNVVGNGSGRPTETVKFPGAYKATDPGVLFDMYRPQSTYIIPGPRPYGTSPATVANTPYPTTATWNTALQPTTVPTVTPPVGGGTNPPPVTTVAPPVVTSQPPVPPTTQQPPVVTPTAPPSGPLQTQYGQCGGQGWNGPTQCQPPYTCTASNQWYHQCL", "experiment": "Amplex Red/HRP oxidase assay (H2O2 production)", "format": "biochemical", "conditions": "reductant (electron donor) at 50 uM, O2 as co-substrate; 1 uM enzyme; sodium phosphate 50 mM, pH 7.0"}
{"compound": "O=C1O[C@H]([C@@H](O)CO)C(O)=C1O", "note": "[ascorbic acid]", "values": [{"measurement": "Amplex Red/HRP oxidase assay (H2O2 production)", "result": "all AA9-X282 LPMOs displayed an oxidase (i.e. H2O2 producing) activity"}]}
